Where “and” joins values, the source holds several entries; their conditions need not be identical. Identical values can stand only once. Entries after “also recorded” stand apart in the source; their conditions may differ. Like-named read-outs stand apart in the source and are kept apart here.
Columns and labels:
Sprague-Dawley rats [1] = experiment: Bone calcium mobilization (serum calcium); type: in vivo, rat; conditions: for Bone calcium mobilization (change from vehicle, mg/dL): vehicle subtracted
Protocol: (§1) Male, weanling Sprague-Dawley rats were placed on Diet 11 (0.47% Ca) diet+AEK oil for one week followed by Diet 11 (0.02% Ca)+AEK oil for 3 weeks. The rats were then switched to a diet containing 0.47% Ca for one week followed by two weeks on a diet containing 0.02% Ca. Dose administration began during the last week on 0.02% calcium diet. Four consecutive intraperitoneal doses were given approximately 24 hours apart. Twenty-four hours after the last dose, blood was collected from the severed neck and the concentration of serum calcium determined as a measure of bone calcium mobilization. The first 10 cm of the intestine was also collected for intestinal calcium transport analysis using the everted gut sac method.

Sprague-Dawley rats [2] = conditions: cited from earlier work; for Bone calcium mobilization (change from vehicle, mg/dL): as reported by Grzywacz et al. 2007
Sprague-Dawley rats [3] = conditions: cited from earlier work; for Intestinal calcium transport (change from vehicle, serosal/mucosal ratio): as reported by Grzywacz et al. 2007
[4] = biological target: T1, recombinant vitamin D receptor (Rattus norvegicus, UniProt P13053); experiment: Vitamin D receptor binding (competitive, 3H-1,25(OH)2D3)
T1 construct: Fun-length recombinant rat receptor was expressed in E. coli; histidine tag (C); made in house; host or cells: E. coli BL21(DE3) Codon Plus RIL
T1 sequence (P13053 1-423): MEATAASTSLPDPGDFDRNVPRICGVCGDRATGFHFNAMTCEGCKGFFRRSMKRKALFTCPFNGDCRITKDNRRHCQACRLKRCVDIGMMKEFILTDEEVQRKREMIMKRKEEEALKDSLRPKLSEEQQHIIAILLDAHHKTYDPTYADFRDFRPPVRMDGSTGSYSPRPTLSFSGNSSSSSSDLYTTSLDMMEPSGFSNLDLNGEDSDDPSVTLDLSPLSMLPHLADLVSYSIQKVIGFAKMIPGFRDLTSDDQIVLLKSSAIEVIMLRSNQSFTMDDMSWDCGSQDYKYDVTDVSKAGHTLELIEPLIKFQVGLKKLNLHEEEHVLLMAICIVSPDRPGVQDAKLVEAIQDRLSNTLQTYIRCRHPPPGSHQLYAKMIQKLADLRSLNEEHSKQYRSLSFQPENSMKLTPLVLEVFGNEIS
Protocol: Fun-length recombinant rat receptor was expressed in E. coli BL21(DE3) Codon Plus RIL cells and purified to homogeneity using two different column chromatography systems. The first system was a nickel affinity resin that utilizes the C-terminal histidine tag on this protein. The protein that was eluted from this resin was further purified using ion exchange chromatography (S-Sepharose Fast How). Aliquots of the purified protein were quick frozen in liquid nitrogen and stored at −80° C. until use. For use in binding assays, the protein was diluted in TEDK50 (50 mM […], 1.5 mM EDTA, pH 7.4, 5 mM DTT, 150 mM KCl) with 0.1% Chaps detergent. The receptor protein and ligand concentration was optimized such that no more than 20% of the added radiolabeled ligand was bound to the receptor.
Unlabeled ligands were dissolved in ethanol and the concentrations determined using UV spectrophotometry (1,25(OH)2D3: molar extinction coefficient=18,200 and λmax=265 nm; Analogs: molar extinction coefficient=42,000 and λmax=252 nm). Radiolabeled ligand (^3H-1,25(OH)2D3, ˜159 Ci/mmole) was added in ethanol at a final concentration of 1 nM.
Radiolabeled and unlabeled ligands were added to […] of the diluted protein at a final ethanol concentration of ≦10%, mixed and incubated overnight on ice to reach binding equilibrium. […] Total binding was determined from the tubes containing only radiolabeled ligand.

HL-60 cells = experiment: HL-60 differentiation (nitro blue tetrazolium reduction); type: cell-based, human; conditions: FIG. 2
Protocol: The study drugs were dissolved in ethanol and the concentrations determined using UV spectrophotometry. Serial dilutions were prepared so that a range of drug concentrations could be tested without changing the final concentration of ethanol ([…]) present in the cell cultures.
Human promyelocytic leukemia (HL60) cells were grown in RPMI-1640 medium containing 10% fetal bovine serum. The cells were incubated at 37° C. in the presence of 5% CO2.
HL60 cells were plated at 1.2×10^5 cells/ml. Eighteen hours after plating, cells in duplicate were treated with drug. Four days later, the cells were harvested and a nitro blue tetrazolium reduction assay was performed (Collins et al., 1979; J. Exp. Med. 149:969-974). The percentage of differentiated cells was determined by counting a total of 200 cells and recording the number that contained intracellular black-blue formazan deposits. Verification of differentiation to monocytic cells was determined by measuring phagocytic activity (data not shown).

[5] = system: 24-hydroxylase (24OHase) gene promoter; experiment: In vitro transcription assay (24-hydroxylase promoter-luciferase in ROS 17/2.8 bone cells); type: cell-based; conditions: FIG. 3
Protocol: Transcription activity was measured in ROS 17/2.8 (bone) cells that were stably transfected with a 24-hydroxylase (24OHase) gene promoter upstream of a luciferase reporter gene (Arbour et al., 1998). Cells were given a range of doses. Sixteen hours after dosing the cells were harvested and luciferase activities were measured using a luminometer. RLU=relative luciferase units.

Sprague-Dawley rats [6] = experiment: Intestinal calcium transport (everted gut sac method); type: in vivo, rat; conditions: for Intestinal calcium transport (change from vehicle, serosal/mucosal ratio): vehicle subtracted
Protocol: as §1

[7] = 260 pmol dose, data of Grzywacz et al. 2007

C=C1[C@H](O)CC(=C/C=C2\CCC[C@]3(C)[C@@H]([C@@H](C)CCCC(C)C)CC[C@@H]23)C[C@H]1O [26Me, 2-methylene-19-nor-(20S)-1α-hydroxyvitamin D3]
Bone calcemic activity as multiple of that of 26N (Sprague-Dawley rats [1]; at 2340 pmol versus 26N at the higher dose of 7020 pmol): ~10 times
Bone calcium mobilization activity, in words (Sprague-Dawley rats [2]; [7]): significant activity
Bone calcium mobilization (change from vehicle, mg/dL) (Sprague-Dawley rats [2]; dose level 87 pmol): 2.0 mg/dL
Bone calcium mobilization (change from vehicle, mg/dL) (Sprague-Dawley rats [2]; dose level 260 pmol): 4.0 mg/dL
Bone calcium mobilization (change from vehicle, mg/dL) (Sprague-Dawley rats [2]; dose level 780 pmol): 5.3 mg/dL
Bone calcium mobilization (change from vehicle, mg/dL) (Sprague-Dawley rats [2]; dose level 2340 pmol): 5.6 mg/dL
Intestinal calcium transport activity, in words (Sprague-Dawley rats [3]; [7]): significant activity
Intestinal calcium transport (change from vehicle, serosal/mucosal ratio) (Sprague-Dawley rats [3]; dose level 87 pmol): 6.6 serosal/mucosal ratio
Intestinal calcium transport (change from vehicle, serosal/mucosal ratio) (Sprague-Dawley rats [3]; dose level 260 pmol): 5.3 serosal/mucosal ratio
Intestinal calcium transport (change from vehicle, serosal/mucosal ratio) (Sprague-Dawley rats [3]; dose level 780 pmol): 2.3 serosal/mucosal ratio
Intestinal calcium transport (change from vehicle, serosal/mucosal ratio) (Sprague-Dawley rats [3]; dose level 2340 pmol): 5.4 serosal/mucosal ratio

C=C1[C@H](O)CC(=C/C=C2\CCC[C@@]3(C)C2CCC3[C@@H](C)CCCCC)C[C@H]1O (stereo in doubt) [26N, 2-methylene-19,26-nor-(20S)-1α-hydroxyvitamin D3]
Binding to the nuclear vitamin D receptor compared with 1,25(OH)2D3 (in words) ([4]; FIG. 1): same affinity as 1,25(OH)2D3
Binding to the nuclear vitamin D receptor compared with 1,25(OH)2D3 (in words) ([4]; FIG. 1, listed as 2-Methylene-19,26-nor-(20S)-1α-hydroxyvitamin D3): approximately equally effective as 1,25-(OH)2D3
Potency in causing differentiation of HL-60 cells into monocytes compared with 1,25(OH)2D3 (in words) (HL-60 cells): same potency as 1,25(OH)2D3
Potency in causing differentiation of HL-60 cells into monocytes compared with 1,25(OH)2D3 (in words) (HL-60 cells; listed as 2-Methylene-19,26-nor-(20S)-1α-hydroxyvitamin D3): same potency as 1,25-(OH)2D3
Potency in increasing transcription of the 24-hydroxylase gene compared with 1,25(OH)2D3 (in words) ([5]; ROS 17/2.8 bone cells): about one log less potent than 1,25(OH)2D3
Times less potent than 1,25-(OH)2D3 in stimulating 24-OHase gene expression ([5]; bone cells): about 10 times
Bone calcium mobilization (calcemic) activity, in words (Sprague-Dawley rats [1]; 260 pmol dose): essentially no calcemic activity
Bone calcium mobilization activity, in words (Sprague-Dawley rats [1]; 7020 pmol): little bone calcium mobilization activity
Times less active than 1,25-(OH)2D3 on bone calcium mobilization (Sprague-Dawley rats [1]; as shown at the dose of 7020 pmol, FIG. 4B): ~30 times
Calcemic activity (bone calcium mobilization), in words (Sprague-Dawley rats [1]; overall, FIGS. 4A, 4B): very low
Times less potent than 1,25(OH)2D3 in releasing bone calcium stores (Sprague-Dawley rats [1]; rat, FIGS. 4A and 4B): approximately 30 times
Bone calcium mobilization (change from vehicle, mg/dL) (Sprague-Dawley rats [1]; rat, dose level 260 pmol, four intraperitoneal doses): -0.1 mg/dL
Bone calcium mobilization (change from vehicle, mg/dL) (Sprague-Dawley rats [1]; rat, dose level 7020 pmol): 0.6 mg/dL and 0.8 mg/dL
Bone calcium mobilization (change from vehicle, mg/dL) (Sprague-Dawley rats [1]; rat, dose level 35100 pmol): 4.0 mg/dL
Intestinal calcium transport (calcemic) activity, in words (Sprague-Dawley rats [6]; 260 pmol dose): essentially no calcemic activity
Calcemic activity (intestinal calcium transport), in words (Sprague-Dawley rats [6]; overall, FIGS. 5A, 5B): very low; also recorded: noticeably less active than 1,25-(OH)2D3
Times less potent than 1,25(OH)2D3 in promoting active calcium transport in the rat gut (Sprague-Dawley rats [6]; rat, FIGS. 5A and 5B): at least 10 times
Intestinal calcium transport (change from vehicle, serosal/mucosal ratio) (Sprague-Dawley rats [6]; rat, dose level 260 pmol): 0.1 serosal/mucosal ratio
Intestinal calcium transport (change from vehicle, serosal/mucosal ratio) (Sprague-Dawley rats [6]; rat, dose level 7020 pmol): 8.7 serosal/mucosal ratio and 7.2 serosal/mucosal ratio
Intestinal calcium transport (change from vehicle, serosal/mucosal ratio) (Sprague-Dawley rats [6]; rat, dose level 35100 pmol): 4.6 serosal/mucosal ratio

Source: patent publication US20110294764A1, “2-METHYLENE-19,26-NOR-(20S)-1alpha-HYDROXYVITAMIN D3” (priority 2009, published 2011)
